Source: ChEMBL document CHEMBL5154840, “Development of novel dipeptide nitriles as inhibitors of rhodesain of Trypanosoma brucei rhodesiense” (Eur J Med Chem, 2022)
pEC50, pKi: −log10 of the molar value. Calls of active or inactive are those of the source. The rule behind the calls is not given here.

Key:
[1] = tested on: Trypanosoma brucei brucei; test: Antitrypanosomal activity against Trypanosoma brucei brucei measured after 48 hrs by ATPlite assay; type: functional, organism-based
[2] = tested on: Trypanosoma brucei brucei; test: Antitrypanosomal activity against Trypanosoma brucei brucei measured after 24 hrs by ATPlite assay; type: functional, organism-based
Rhodesain = Rhodesain (Trypanosoma brucei rhodesiense, UniProt Q95PM0); test: Inhibition of full length Trypanosoma brucei rhodesiense rhodesain expressed in pichia pastoris using Cbz-Phe-Arg-AMC as substrate measured for 10 mins by fluorometric enzyme assays
Chain of Rhodesain (Q95PM0 whole entry): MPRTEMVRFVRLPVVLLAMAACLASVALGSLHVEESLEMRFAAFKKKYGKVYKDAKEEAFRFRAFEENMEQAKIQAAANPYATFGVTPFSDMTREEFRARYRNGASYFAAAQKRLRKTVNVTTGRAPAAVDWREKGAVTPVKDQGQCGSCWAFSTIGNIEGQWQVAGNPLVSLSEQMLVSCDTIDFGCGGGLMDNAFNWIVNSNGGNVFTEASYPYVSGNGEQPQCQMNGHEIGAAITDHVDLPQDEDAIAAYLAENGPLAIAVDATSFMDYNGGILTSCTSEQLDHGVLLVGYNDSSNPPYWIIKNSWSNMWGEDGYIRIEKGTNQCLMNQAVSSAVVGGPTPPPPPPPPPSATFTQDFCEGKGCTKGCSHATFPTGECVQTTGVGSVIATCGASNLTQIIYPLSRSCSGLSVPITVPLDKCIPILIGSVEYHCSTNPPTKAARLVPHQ

[3] = target: Rhodesain (Trypanosoma brucei rhodesiense) (UniProt Q95PM0); test: Competitive inhibition of Trypanosoma brucei rhodesiense rhodesain expressed in pichia pastoris using varying concentration of Cbz-Phe-Arg-AMC as substrate by fluorometric enzyme assays
Chain of Rhodesain (Trypanosoma brucei rhodesiense) (Q95PM0 1-450): as the sequence (Q95PM0 whole entry) above

SMILES	pEC50 [1]	pEC50 [2]	pKi (Rhodesain)	inhibition [3]
N#C[C@H](CCc1ccccc1)NC(=O)[C@H](Cc1ccccc1)NC(=O)c1ccccc1F	4.94	4.99	6.95	
N#C[C@H](CCc1ccccc1)NC(=O)[C@H](Cc1ccccc1)NC(=O)c1ccc(F)cc1	4.84	4.97	7.15	
CC(C)C[C@H](NC(=O)c1c(F)cccc1F)C(=O)N[C@H](C#N)CCc1ccccc1	4.57	4.73	7.28	
N#C[C@H](CCc1ccccc1)NC(=O)[C@H](Cc1ccccc1)NC(=O)c1cccc(F)c1	5.03	5.04	7.14	
CC(C)C[C@H](NC(=O)c1cccc(F)c1)C(=O)N[C@H](C#N)CCc1ccccc1	4.85	5.00	7.80	Active
N#C[C@H](CCc1ccccc1)NC(=O)[C@H](Cc1ccccc1)NC(=O)c1ccc(F)cc1F	4.63	4.73		
N#C[C@H](CCc1ccccc1)NC(=O)[C@H](Cc1ccccc1)NC(=O)c1c(F)cccc1F	5.06	5.28	6.91	
CC(C)C[C@H](NC(=O)c1ccc(F)cc1F)C(=O)N[C@H](C#N)CCc1ccccc1	4.65	4.71	7.18	
CC(C)C[C@H](NC(=O)c1ccccc1F)C(=O)N[C@H](C#N)CCc1ccccc1	4.49	4.68	7.49	
CC(C)C[C@H](NC(=O)c1ccc(F)cc1)C(=O)N[C@H](C#N)CCc1ccccc1	4.73	4.88	7.28	
